Counter-ions that a name gives are not always drawn.
What was measured:
[1] = target: T1, dopamine D4 receptors in cloned human dopamine receptor subtype 4.2 membranes (Homo sapiens, UniProt P21917, DEL271-302); test: 3H-YM-09151-2 binding (affinity for dopamine D4 receptors); conditions: 3H-YM-09151-2, cloned human D4.2 membranes; for IC50: * means that the test result is preliminary, read-out: D4-bind. IC50
T1 sequence (P21917 with tags, fused parts or gaps DEL271-302): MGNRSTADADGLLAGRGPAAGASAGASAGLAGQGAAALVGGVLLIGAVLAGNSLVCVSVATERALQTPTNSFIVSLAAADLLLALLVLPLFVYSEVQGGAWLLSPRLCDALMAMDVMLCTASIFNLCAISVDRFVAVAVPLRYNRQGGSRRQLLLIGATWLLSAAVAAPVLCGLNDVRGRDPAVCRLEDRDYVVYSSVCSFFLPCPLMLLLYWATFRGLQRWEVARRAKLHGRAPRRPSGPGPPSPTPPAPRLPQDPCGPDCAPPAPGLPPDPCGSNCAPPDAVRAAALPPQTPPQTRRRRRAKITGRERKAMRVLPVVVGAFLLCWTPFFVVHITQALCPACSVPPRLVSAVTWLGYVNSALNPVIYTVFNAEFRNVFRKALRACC
Description: By this method the inhibition by drugs of the binding of the dopamine D4 antagonist ^3H-YM-09151-2 to dopamine D4 receptors in cloned human dopamine receptor subtype 4.2 membranes is determined in vitro. Accordingly, this is a test for affinity for dopamine D4 receptors. The test is performed using a preparation of cloned dopamine D4 cell membranes CRM-016®, Dupharma A/S, Denmark, in accordance with the product specifications.

SMILES | melting point [°C] | IC50 [1] [nM] | inhibition at 0.05 µM ([1]; at 50 nM, read-out: D4-bind. % inhibition of binding at 50 nM) [%]
COc1cc2c(cc1OC)CC(CN1CCC(c3c[nH]c4cc(Cl)ccc34)CC1)C2 | 68 to 79 | – | –
CC(=O)Nc1ccc2c(c1)CC(CN1CCC(c3c[nH]c4cc(Cl)ccc34)CC1)C2 (stereo not drawn) | 151 to 152 | – | –
CC(=O)Nc1ccc2c(c1)CCC2CN1CC=C(c2c[nH]c3cc(Cl)ccc23)CC1 (stereo not drawn) (as salt: fumarate) [Compound 6d, 6-Chloro-3-[1-(5-acetylamino-1-indanylmethyl)-1,2,3,6-tetrahydropyridin-4-yl]-1H-indole] | 241 to 242 | – | –
c1ccc2c(c1)CC(CN1CCN(c3ccc4[nH]ccc4c3)CC1)C2 (as salt: hydrochloride) [Compound 11f, 5-[4-(Indan-2-yl)methylpiperazin-1-yl]-1H-indole] | 263 to 265 | – | –
c1ccc2c(c1)CC(CCN1CCN(c3ccc4[nH]ccc4c3)CC1)C2 (as salt: hydrochloride) [Compound 25b, 5-[4-[2-(Indan-2-yl)ethyl]piperazin-1-yl]-1H-indole] | 251 to 253 | – | –
CC(C)Oc1cccc2c1CC(CN1CCC(c3c[nH]c4cc(Cl)ccc34)CC1)C2 (stereo not drawn) (as salt: oxalate) | 119 to 126 | – | –
CC(C)Oc1cccc2c1CC(CN1CCC(c3c[nH]c4ccc(F)cc34)CC1)C2 (stereo not drawn) (as salt: oxalate) | 181 to 189 | – | –
CC(=O)Nc1ccc2c(c1)CC(CN1CC=C(c3c[nH]c4cc(Cl)ccc34)CC1)C2 (stereo not drawn) (as salt: oxalate) | 201 to 203 | – | –
Clc1ccc2c(C3CCN(CCCCC4CCc5ccccc54)CC3)c[nH]c2c1 (stereo not drawn) (as salt: oxalate) [Compound 8f, 6-Chloro-3-[1-[4-(indan-1-yl)butan-1-yl)-piperidin-4-yl]-1H-indole] | 206 to 208 | – | –
Clc1ccc2c(C3=CCN(CCCCC4CCc5ccccc54)CC3)c[nH]c2c1 (stereo not drawn) (as salt: oxalate) [Compound 8h] | 191 to 192 | – | –
Clc1cccc2c(C3=CCN(CC4Cc5ccccc5C4)CC3)c[nH]c12 (as salt: oxalate) [Compound 11c, 7-Chloro-3-[1-(indan-2-yl)methyl-1,2,3,6-tetrahydropyridin-4-yl]-1H-indole] | 135 to 136 | – | –
CC(=O)Nc1ccc2c(c1)C(CCN1CC=C(c3c[nH]c4cc(Cl)ccc34)CC1)CC2 (stereo not drawn) (as salt: oxalate) [Compound 18c] | 153 to 155 | – | –
CC(=O)Nc1ccc2c(c1)C(CCCN1CC=C(c3c[nH]c4cc(Cl)ccc34)CC1)CC2 (stereo not drawn) (as salt: oxalate) [Compound 18d, 6-Chloro-3-[1-[3-(6-acetylaminoindan-1-yl)propan-1-yl]-1,2,3,6-tetrahydropyridin-4-yl]-1H-indole] | 110 to 115 | – | –
CC(=O)Nc1ccc2c(c1)C(CCCCN1CC=C(c3c[nH]c4cc(Cl)ccc34)CC1)CC2 (stereo not drawn) (as salt: oxalate) [Compound 18e, 6-Chloro-3-[1-[4-(6-acetylaminoindan-1-yl)butan-1-yl]-1,2,3,6-tetrahydropyridin-4-yl]-1H-indole] | 125 to 128 | – | –
CC(=O)N1CC(CCCN2CC=C(c3c[nH]c4cc(Cl)ccc34)CC2)c2ccccc21 (stereo not drawn) (as salt: oxalate) [Compound 20k, 3-[1-[3-(1-Acetyl-2,3-dihydro-1H-indol-3-yl)propyl]-1,2,3,6-tetrahydropyridin-4-yl]-6-chloro-1H-indole] | 112 to 115 | – | –
Clc1cccc2c(C3CCN(CC4Cc5ccccc5C4)CC3)c[nH]c12 (as salt: oxalate) [Compound 21c, 7-Chloro-3-[1-(indan-2-ylmethyl)piperidin-4-yl]-1H-indole] | 218 to 219 | – | –
C1=C(n2ccc3ccccc32)CCN(CCC2Cc3ccccc3C2)C1 (as salt: oxalate) [Compound 28b, 1-[1-[2-(Indan-2-yl)ethyl]-1,2,3,6-tetrahydropyridin-4-yl]-1H-indole] | 176 to 178 | – | –
CC(=O)N1CC(CCN2CC=C(c3c[nH]c4cc(Cl)ccc34)CC2)c2ccccc21 (single isomer, unassigned; (-)) [Compound 34b] | 168 to 169 | 24 | –
CC(=O)Nc1cccc2c1CCC2CN1CC=C(c2c[nH]c3cc(Cl)ccc23)CC1 (stereo not drawn) [Compound 6c] | 189 to 190 | 12 | –

SMILES | melting point [°C] | IC50 [1] [nM] | inhibition at 0.05 µM ([1]; at 50 nM, read-out: D4-bind. % inhibition of binding at 50 nM) [%]
Clc1ccc2c(C3=CCN(CCC4CCc5ccccc54)CC3)c[nH]c2c1 (stereo not drawn) [Compound 8a, 6-Chloro-3-[1-[2-(indan-1-yl)ethyl]-1,2,3,6-tetrahydropyridine-4-yl]-1H-indole] | 181 to 183 | 3.5 | –
Fc1ccc2[nH]cc(C3=CCN(CCC4CCc5ccccc54)CC3)c2c1 (stereo not drawn) [Compound 8b, 5-Fluoro-3-[1-[2-(indan-1-yl)ethyl]-1,2,3,6-tetrahydropyridin-4-yl]-1H-indole] | 172 to 176 | 2.8 | –
Fc1ccc2[nH]cc(C3=CCN(CCCCC4CCc5ccccc54)CC3)c2c1 (stereo not drawn) [Compound 8d, 5-Fluoro-3-[1-[4-(indan-1-yl)butan-1-yl]-1,2,3,6-tetrahydropyridin-4-yl]-1H-indole] | 172 to 176 | 20 | –
C1=C(c2c[nH]c3ccccc23)CCN(CC2Cc3ccccc3C2)C1 [Compound 11b, 3-[1-(Indan-2-yl)methyl-1,2,3,6-tetrahydropyridin-4-yl]-1H-indole] | 156 to 157 | 3 | –
Clc1ccc2c(C3=CCN(CC4Cc5ccccc5C4)CC3)c[nH]c2c1Cl [Compound 11d, 6,7-Dichloro-3-[1-(indan-2-yl)methyl-1,2,3,6-tetrahydropyridin-4-yl]-1H-indole] | 151 to 152 | 27 | –
C1=C(c2c[nH]c3cc4c(cc23)OCO4)CCN(CC2Cc3ccccc3C2)C1 [Compound 11e, 3-[1-(Indan-2-yl)methyl-1,2,3,6-tetrahydropyridin-4-yl]-5,6-methylenedioxy-1H-indole] | 192 to 193 | 16 | –
Clc1ccc2c(C3=CCN(CCC4Cc5ccccc5C4)CC3)c[nH]c2c1 [Compound 11g, 6-Chloro-3-[1-[2-(indan-2-yl)ethyl]-1,2,3,6-tetrahydropyridin-4-yl]-1H-indole] | 217 to 218 | 12 | –
Clc1ccc2c(C3=CCN(CCCC4Cc5ccccc5C4)CC3)c[nH]c2c1 [Compound 11h, 6-Chloro-3-[1-[3-(indan-2-yl)propan-1-yl]-1,2,3,6-tetrahydropyridin-4-yl]-1H-indole] | 176 to 177 | 24 | –
Clc1ccc2c(C3=CCN(CCCCC4Cc5ccccc5C4)CC3)c[nH]c2c1 [Compound 11i, 6-Chloro-3-[1-[4-(indan-2-yl)butan-1-yl]-1,2,3,6-tetrahydropyridin-4-yl]-1H-indole] | 211 to 214 | – | 37
c1ccc2c(c1)CC(CN1CCC(c3c[nH]c4ccccc34)CC1)C2 [Compound 21b, 3-[1-(indan-2-ylmethyl)piperidin-4-yl]-1H-indole] | 146 to 147 | 2.1 | –
Clc1ccc2c(C3CCN(CC4Cc5ccccc5C4)CC3)c[nH]c2c1Cl [Compound 21d, 6,7-Dichloro-3-[1-(indan-2-ylmethyl)piperidin-4-yl]-1H-indole] | 141 to 142 | 3.9 | –
c1ccc2c(c1)CC(CN1CCC(c3c[nH]c4cc5c(cc34)OCO5)CC1)C2 [Compound 21e, 3-[1-(Indan-2-ylmethyl)piperidin-4-yl]-5,6-methylenedioxy-1H-indole] | 187 to 188 | 23 | –
Clc1ccc2c(C3CCN(CCC4Cc5ccccc5C4)CC3)c[nH]c2c1 [Compound 21f, 6-Chloro-3-[1-[2-(indan-2-yl)ethyl]piperidin-4-yl]-1H-indole] | 155 to 156 | 3.2 | –
Clc1ccc2c(C3CCN(CCCC4Cc5ccccc5C4)CC3)c[nH]c2c1 [Compound 21g, 6Chloro-3-[1-[3-(indan-2-yl)propan-1-yl]piperidin-4-yl]-1H-indole] | 134 to 135 | 7.2 | –
c1ccc2c(c1)CC(CCN1CCN(c3ccc4[nH]ccc4c3)CC1)C2 [Compound 25b, 5-[4-[2-(Indan-2-yl)ethyl]piperazin-1-yl]-1H-indole] | – | 5.3 | –
Clc1ccc2c(ccn2C2=CCN(CCC3Cc4ccccc4C3)CC2)c1 [Compound 28a, 5-Chloro-1-[1-[2-(indan-2-yl)ethyl]-1,2,3,6-tetrahydropyridin-4-yl]-1H-indole] | – | 160 | –
C1=C(n2ccc3ccccc32)CCN(CCC2Cc3ccccc3C2)C1 [Compound 28b, 1-[1-[2-(Indan-2-yl)ethyl]-1,2,3,6-tetrahydropyridin-4-yl]-1H-indole] | – | 14 | –
Clc1ccc2c(ccn2C2CCN(CCC3Cc4ccccc4C3)CC2)c1 [Compound 29a, 5-Chloro-1-[1-[2-(indan-2-yl)ethyl]piperidin-4-yl]-1H-indole] | – | 6.9 | –
Clc1ccc2c(C3=CCN(CCC4CNc5ccccc54)CC3)c[nH]c2c1 (stereo not drawn) [Compound 30a, 6-Chloro-3-[1-[2-(2,3-dihydro-1H-indol-3-yl)ethyl]-1,2,3,6-tetrahydropyridin-4-yl]-1H-indole] | – | 9.9 | –

From patent US6352988B2, “Indane or dihydroindole derivatives” (H. Lundbeck A/S, priority 1996, dated 2002)
